In patent publication US9422332B2, “Azaheterocycles as BIR2 and/or BIR3 inhibitors” (Hoffmann-La Roche Inc., priority 2012, dated 2016):
pIC50: −log10 of the molar value.

Assays:
BIR2 domain of XIAP = BIR2 domain of XIAP (Homo sapiens (Human), UniProt P98170, C202A/C213G); experiment: TR-FRET assay for BIR2 (inhibition of binding of XIAP BIR2 domain to Peptide A); settings: 6x His-tagged BIR2 domain (aa 124-240 of XIAP), 20 nM Peptide A
Method: (§1) TR-FRET Assay for BIR2 and BIR3
(§2) The peptides were labeled with the fluorescent tags FITC or TAMRA and Kd values were determined by fluorescence polarization assay. […] The peptide sequence was derivatized with biotin to provide […]-(ε-biotin)-OH 1:2 TFA as the substrate for the TR-FRET assay.
The XIAP protein sequence was obtained from the SWISS-PROT protein sequence database and the BIR2 and BIR3 domains were derived from that. The sequence of the BIR2 domain used for the TR-FRET assay is
(§3) Time-resolved fluorescence resonance energy transfer (TR-FRET) signals were measured 1 hour later at room temperature. Test compound potency was assessed at 10 serially diluted concentrations. Percentage of inhibition at each concentration was determined to generate an IC50 value for each test compound.

BIR3 domain of XIAP = BIR3 domain of XIAP (Homo sapiens (Human), UniProt P98170); experiment: TR-FRET assay for BIR3 (inhibition of binding of XIAP BIR3 domain to Peptide A); settings: 6x His-tagged BIR3 domain (aa 241-356 of XIAP), 20 nM Peptide A
Method: as §1, §2
The sequence of the BIR3 domain used for the TR-FRET assay is
as §3

Sequence of BIR2 domain of XIAP (P98170 other isoform, or with tags, fused parts or gaps, stated change not applied): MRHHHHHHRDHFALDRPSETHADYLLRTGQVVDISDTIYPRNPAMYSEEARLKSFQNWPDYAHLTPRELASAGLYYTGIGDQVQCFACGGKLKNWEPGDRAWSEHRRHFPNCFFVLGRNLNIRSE
Sequence of BIR3 domain of XIAP (P98170 other isoform, or with tags, fused parts or gaps): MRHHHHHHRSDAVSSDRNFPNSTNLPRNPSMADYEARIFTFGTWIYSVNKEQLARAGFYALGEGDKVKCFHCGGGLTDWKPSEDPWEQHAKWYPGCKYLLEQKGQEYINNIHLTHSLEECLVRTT

SMILES	pIC50 (BIR2 domain of XIAP)	pIC50 (BIR3 domain of XIAP)
CN[C@@H](C)C(=O)N[C@H](C(=O)N1CCc2ccc(F)cc2[C@@H]1C(=O)Nc1c(F)cccc1F)C(C)C [Example 41, N-(2,6-difluorophenyl)-7-fluoro-2-((S)-3-methyl-2-((S)-2-(methylamino)propanamido)butanoyl)-1,2,3,4-tetrahydroisoquinoline-1-carboxamide]	5.63	< 4.26
CN[C@@H](C)C(=O)N[C@H](C(=O)N1CCc2ccc(F)cc2[C@H]1C(=O)Nc1c(F)cccc1F)C(C)C [Example 42, N-(2,6-difluorophenyl)-7-fluoro-2-((S)-3-methyl-2-((S)-2-(methylamino)propanamido)butanoyl)-1,2,3,4-tetrahydroisoquinoline-1-carboxamide]	7.57	< 4.26
CN[C@@H](C)C(=O)N[C@H](C(=O)N1CCc2ccc(Cl)cc2[C@@H]1C(=O)Nc1c(F)cccc1F)C(C)C [Example 44, 7-chloro-N-(2,6-difluorophenyl)-2-((S)-3-methyl-2-((S)-2-(methylamino)propanamido)butanoyl)-1,2,3,4-tetrahydroisoquinoline-1-carboxamide]	5.33	< 4.26
CN[C@@H](C)C(=O)N[C@H](C(=O)N1CCc2ccc(Cl)cc2[C@H]1C(=O)Nc1c(F)cccc1F)C(C)C [Example 45, 7-chloro-N-(2,6-difluorophenyl)-2-((S)-3-methyl-2-((S)-2-(methylamino)propanamido)butanoyl)-1,2,3,4-tetrahydroisoquinoline-1-carboxamide]	7.33	< 4.26
